Patent US5976783A, “Bis-maleimido cross-linking agents” (Boehringer Mannheim Corporation, priority 1997, dated 1999)

Key:
[1] = stability of 4-maleimidobutyraldehyde on work-up; type: physicochemical; conditions: work-up needed low temperatures (0° C.) and complete exclusion of oxygen
Method: 4-Maleimidobutyraldehyde diethylacetal (2 g, 8.29 mmol) in tetrahydrofuran (20 ml) and water (0.5 ml) was stirred under argon and DOWEX 50X8 ion exchange resin (H^+, 2 g, ® Dow Chemical Co.) was added. After 12 hours stirring at room temperature, the solvent was decanted, dried (MgSO4) and evaporated in vacuo to afford 4-maleimidobutyraldehyde (formula III) as a yellow oil which rapidly solidified on standing (1.38 g, 99%); TLC Rf=0.4, ethyl acetate/hexane 1:1.

ICE protease = conditions: See Nature 375:78-81 (1995); cited from earlier work

Row | stability [1] | Compound | inhibition of ICE protease (ICE protease)
1 | extremely unstable | O=CCCCN1C(=O)C=CC1=O [4-maleimidobutyraldehyde] | –
2 | – | CC(=O)N[C@@H](Cc1ccc(O)cc1)C(=O)N[C@H](C(=O)N[C@@H](C)C(=O)N[C@@H](CC(=O)O)C(=O)CCl)C(C)C [Ac-Tyr-Val-Ala-Asp-*] | potent inhibitor
